Here are results for 23 compounds from patent US11608335B2, “Somatostatin modulators and uses thereof” (CRINETICS PHARMACEUTICALS, INC., priority 2018, dated 2023).

Structures are written as SMILES. pEC50: −log10 of the molar value. Some results are limits rather than exact numbers.

Sequence of human somatostatin receptor subtype 5 (P35346 whole entry): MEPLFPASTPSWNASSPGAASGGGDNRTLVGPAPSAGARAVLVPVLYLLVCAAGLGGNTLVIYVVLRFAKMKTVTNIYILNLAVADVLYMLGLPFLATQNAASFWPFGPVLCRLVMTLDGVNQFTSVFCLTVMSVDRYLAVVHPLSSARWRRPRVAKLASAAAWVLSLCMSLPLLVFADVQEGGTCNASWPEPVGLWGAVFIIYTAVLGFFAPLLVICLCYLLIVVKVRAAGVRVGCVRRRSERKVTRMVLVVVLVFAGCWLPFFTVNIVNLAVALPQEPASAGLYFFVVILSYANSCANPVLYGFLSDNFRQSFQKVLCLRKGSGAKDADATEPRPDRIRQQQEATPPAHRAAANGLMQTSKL

This test has as its target human somatostatin receptor subtype 5 (Homo sapiens, UniProt P35346). Kind of test: cAMP assay for SST5R (inhibition of cAMP via human SST5 receptor). (In general: Cyclic AMP is a second messenger, typically raised through Gs and lowered through Gi signalling.)
Description: cAMP Assay Protocol for SST5R:
The cells are cultured at 37° C., 5% CO2 and 95% humidity. […] The cells are incubated for 20 minutes at 37° C. […] The cells are treated with 50 μL of lysis buffer (HRTF cAMP kit, Cisbio) for 30 minutes and then the lysate is diluted to 250 μL with assay buffer. The lysate is transferred to 384-well plates and cAMP detection and visualization antibodies are added and incubated for 1-24 hours at room temperature. The time-resolved fluorescent signal is read with a Tecan M1000Pro multiplate reader. The intracellular cAMP concentrations are calculated by regression to a standard curve and are plotted vs. the concentration of the compounds of the invention and the EC50 of the compounds are calculated using standard methods. All data manipulations are in GraphPad Prism v6 or v7.
`CC1(N)CCN(c2c(-c3cccc(N4CCOC4=O)c3)cncc2-c2nc3cccc(F)c3[nH]2)C1` (centres unmarked) [Compound 2-17, 3-{3-[4-(3-amino-3-methylpyrrolidin-1-yl)-5-(4-fluoro-1H-1,3-benzodiazol-2-yl)pyridin-3-yl]phenyl}-1,3-oxazolidin-2-one]: the pEC50 was 7.00 to 8.00.
The same measure for `CNC(=O)c1cccc(-c2cncc(-c3nc4cccc(F)c4[nH]3)c2N2CCC(C)(N)C2)c1` (centres unmarked) [Compound 2-19, 3-[4-(3-amino-3-methylpyrrolidin-1-yl)-5-(4-fluoro-1H-1,3-benzodiazol-2-yl)pyridin-3-yl]-N-methylbenzamide]: 7.00 to 8.00; for `N[C@H]1CCN(c2c(-c3cc(O)cc(F)c3)cncc2-c2nc3cccc(F)c3[nH]2)C1` [Compound 2-25, 3-{4-[(3S)-3-aminopyrrolidin-1-yl]-5-(4-fluoro-1H-1,3-benzodiazol-2-yl)pyridin-3-yl}-5-fluorophenol]: 7.00 to 8.00; for `CC1(N)CCN(c2c(-c3ccc4[nH]ccc4c3)cncc2-c2nc3cccc(F)c3[nH]2)C1` (centres unmarked) [Compound 2-30, 1-[3-(4-fluoro-1H-1,3-benzodiazol-2-yl)-5-(1H-indol-5-yl)pyridin-4-yl]-3-methylpyrrolidin-3-amine]: 6.00 to 7.00.
The value for `CN(C)C(=O)c1cccc(-c2cncc(-c3nc4cccc(F)c4[nH]3)c2N2CCC(C)(N)C2)c1` (centres unmarked) [Compound 2-31, 3-[4-(3-amino-3-methylpyrrolidin-1-yl)-5-(4-fluoro-1H-1,3-benzodiazol-2-yl)pyridin-3-yl]-N,N-dimethylbenzamide] was 6.00 to 7.00; that for `N#Cc1c(F)ccc(-c2cncc(-c3nc4cccc(F)c4[nH]3)c2N2CC[C@H](N)C2)c1F` [Compound 2-32, 3-{4-[(3S)-3-aminopyrrolidin-1-yl]-5-(4-fluoro-1H-1,3-benzodiazol-2-yl)pyridin-3-yl}-2,6-difluorobenzonitrile] was > 8.00; that for `N#Cc1cccc(-c2cncc(-c3nc4c(F)cccc4[nH]3)c2N2CC(N)C(C(F)(F)F)C2)c1` (centres unmarked) [Compound 2-33, 3-{4-[3-amino-4-(trifluoromethyl)pyrrolidin-1-yl]-5-(4-fluoro-1H-1,3-benzodiazol-2-yl)pyridin-3-yl}benzonitrile] was 6.00 to 7.00.
Take `N#Cc1ccc(-c2cncc(-c3nc4c(F)cccc4[nH]3)c2N2CC[C@H](N)C2)cc1F` [Compound 2-35, 4-{4-[(3S)-3-aminopyrrolidin-1-yl]-5-(4-fluoro-1H-1,3-benzodiazol-2-yl)pyridin-3-yl}-2-fluorobenzonitrile]: the pEC50 was 7.00 to 8.00.
The same measure for `N#Cc1cc(-c2cncc(-c3nc4cccc(F)c4[nH]3)c2N2CC[C@H](N)C2)ccc1O` [Compound 2-36, 5-{4-[(3S)-3-aminopyrrolidin-1-yl]-5-(4-fluoro-1H-1,3-benzodiazol-2-yl)pyridin-3-yl}-2-hydroxybenzonitrile]: 6.00 to 7.00.
The same measure for `N#Cc1c(F)cccc1-c1cncc(-c2nc3c(F)ccc(F)c3[nH]2)c1N1CC[C@H](N)C1` [Compound 2-40, 2-{4-[(3S)-3-aminopyrrolidin-1-yl]-5-(4,7-difluoro-1H-1,3-benzodiazol-2-yl)pyridin-3-yl}-6-fluorobenzonitrile]: 7.00 to 8.00; for `N#Cc1cccc(-c2cncc(-c3nc4c(F)c(F)c(F)c(F)c4[nH]3)c2N2CC[C@H](N)C2)c1` [Compound 2-41, 3-{4-[(3S)-3-aminopyrrolidin-1-yl]-5-(4,5,6,7-tetrafluoro-1H-1,3-benzodiazol-2-yl)pyridin-3-yl}benzonitrile]: 7.00 to 8.00; for `N#Cc1ccc(-c2cncc(-c3nc4cccc(F)c4[nH]3)c2N2CC[C@H](N)C2)cc1` [Compound 2-42, 4-{4-[(3S)-3-aminopyrrolidin-1-yl]-5-(4-fluoro-1H-1,3-benzodiazol-2-yl)pyridin-3-yl}benzonitrile]: 6.00 to 7.00.
The same measure for `N#Cc1c(Cl)cccc1-c1cncc(-c2nc3cccc(F)c3[nH]2)c1N1CC[C@H](N)C1` [Compound 2-47, 2-{4-[(3S)-3-aminopyrrolidin-1-yl]-5-(4-fluoro-1H-1,3-benzodiazol-2-yl)pyridin-3-yl}-6-chlorobenzonitrile]: > 8.00; for `N#Cc1cc(-c2cncc(-c3nc4c(F)ccc(F)c4[nH]3)c2N2CC[C@H](N)C2)ccc1C(F)(F)F` [Compound 2-48, 5-{4-[(3S)-3-aminopyrrolidin-1-yl]-5-(4,7-difluoro-1H-1,3-benzodiazol-2-yl)pyridin-3-yl}-2-(trifluoromethyl)benzonitrile]: 7.00 to 8.00.
`Cc1ccnc2nc(-c3cncc(-c4ccc(F)c(C#N)c4)c3N3CC[C@H](N)C3)[nH]c12` [Compound 2-50, 5-{4-[(3S)-3-aminopyrrolidin-1-yl]-5-{7-methyl-1H-imidazo[4,5-b]pyridin-2-yl}pyridin-3-yl}-2-fluorobenzonitrile] gave a pEC50 of 7.00 to 8.00.
The same measure for `CC1(N)CCN(c2c(-c3cccc(-n4ccnc4)c3)cncc2-c2nc3cccc(F)c3[nH]2)C1` (centres unmarked) [Compound 2-53, 1-[3-(4-fluoro-1H-1,3-benzodiazol-2-yl)-5-[3-(1H-imidazol-1-yl)phenyl]pyridin-4-yl]-3-methylpyrrolidin-3-amine]: 7.00 to 8.00.
The value for `CS(=O)(=O)c1cccc(-c2cncc(-c3nc4cccc(F)c4[nH]3)c2N2CC[C@H](N)C2)c1` [Compound 2-58, (3S)-1-[3-(4-fluoro-1H-1,3-benzodiazol-2-yl)-5-(3-methanesulfonylphenyl)pyridin-4-yl]pyrrolidin-3-amine] was 7.00 to 8.00; that for `N[C@H]1CCN(c2c(-c3ccc4c(c3)OCC4)cncc2-c2nc3cccc(F)c3[nH]2)C1` [Compound 2-59, (3S)-1-[3-(2,3-dihydro-1-benzofuran-6-yl)-5-(4-fluoro-1H-1,3-benzodiazol-2-yl)pyridin-4-yl]pyrrolidin-3-amine] was 7.00 to 8.00; that for `NC(=O)c1cc(-c2cncc(-c3nc4c(F)ccc(F)c4[nH]3)c2N2CC[C@H](N)C2)ccc1F` [Compound 2-61, 5-{4-[(3S)-3-aminopyrrolidin-1-yl]-5-(4,7-difluoro-1H-1,3-benzodiazol-2-yl)pyridin-3-yl}-2-fluorobenzamide] was 7.00 to 8.00.
The same measure for `NC(=O)c1cccc(-c2cncc(-c3nc4cccc(F)c4[nH]3)c2N2CCC(N)(C(F)(F)F)C2)c1` (centres unmarked) [Compound 2-64, 3-{4-[3-amino-3-(trifluoromethyl)pyrrolidin-1-yl]-5-(4-fluoro-1H-1,3-benzodiazol-2-yl)pyridin-3-yl}benzamide]: < 6.00.
`N#Cc1cc(F)cc(-c2cncc(-c3nc4cccc(F)c4[nH]3)c2N2C[C@@H](N)C[C@@H]2CO)c1` [Compound 2-66, 3-{4-[(2R,4S)-4-amino-2-(hydroxymethyl)pyrrolidin-1-yl]-5-(4-fluoro-1H-1,3-benzodiazol-2-yl)pyridin-3-yl}-5-fluorobenzonitrile] showed a pEC50 of 6.00 to 7.00.
`NC(=O)c1cc(-c2cncc(-c3nc4cccc(F)c4[nH]3)c2N2CC[C@H](N)C2)ccc1F` [Compound 2-71, 5-{4-[(3S)-3-aminopyrrolidin-1-yl]-5-(4-fluoro-1H-1,3-benzodiazol-2-yl)pyridin-3-yl}-2-fluorobenzamide]: the negative logarithm of the EC50 (pEC50) was 7.00 to 8.00.
The same measure for `NC(=O)c1cc(F)cc(-c2cncc(-c3nc4cccc(F)c4[nH]3)c2N2CC[C@H](N)C2)c1` [Compound 2-72, 3-{4-[(3S)-3-aminopyrrolidin-1-yl]-5-(4-fluoro-1H-1,3-benzodiazol-2-yl)pyridin-3-yl}-5-fluorobenzamide]: > 8.00.

As usually defined, the pEC50 is the EC50 on a negative log10 scale, so that one unit is a factor of ten.
